Several values for one entry are separate records, joined by “and”; a condition that tells them apart may be missing. Equal entries are not always repeated.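 Test compounds were applied to cells in 96-well plates for 48 hours at 5 doses. Abbreviation: GI50, concentration required for 50% inhibition of growth. At the TGI there is no net growth.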 Where a SMILES comes first, the peptide text is derived from it. [ ]: non-standard residue; d: D form. The star is where a group is joined. X13 = OC[C@H](CC1CCCCC1)N*; dIva = CC[C@@](C)(N)C(=O)O; Aib = CC(C)(N)C(=O)O

This assay concerns MDA-MB-468 breast. Kind of assay: growth of human tumour cells (NCI), 48 h.
Consider `O=C(CNc1ccc2c(c1)C(=O)c1ccccc1C2=O)Nc1ccc2c(c1)C(=O)c1ccccc1C2=O`, for which the GI50 is 896 nM and the TGI came to 2480 nM.

For the compound `C=CC(=O)N1CCN(c2nc(=O)n(-c3c(C)ccnc3C(C)C)c3nc(-c4c(O)cccc4F)c(F)cc23)[C@@H](C)C1`, the GI50 is 22000 nM and the TGI was above 81100 nM.

As for `O=[N+]([O-])c1ccc(-c2nnc(SCc3ccc(O)c4ncccc34)o2)cc1`, the GI50 is 396 nM and the TGI was above 100000 nM.

As to `CC(C)[C@H](CO)Nc1nc(Nc2ccc(C(=O)NCCNS(=O)(=O)c3cccc4c(N(C)C)cccc34)c(Cl)c2)c2ncn(C(C)C)c2n1`, the GI50 is 1690 nM and the TGI worked out at 6750 nM.

Take `CC(C)(C)c1nn(-c2ccccc2)c2c1C(=O)CSC(c1ccccc1Cl)N2` (stereo not given): the GI50 is 1010 nM and the TGI worked out at 12100 nM.

As for `CCc1c(C#N)c(S[C@@H](C(N)=O)c2ccccc2)nc(N(C)C)c1C#N`, the GI50 was 6140 nM and the TGI is above 100000 nM.

`C/C(=N/Nc1nc2ccccc2n1C)c1ccccn1`: the GI50 is 31.9 nM and the TGI is 239 nM.

Regarding `Fc1ccc2c(c1)c(-c1nc(-c3c[nH]c4ncccc34)cs1)cn2CCCN1CCCCC1`, the GI50 is 1610 nM and the TGI is 3230 nM.

With `CCC/C(=N/N=C(N)N)c1ccc(NC(=O)c2cc3cc(OC)ccc3[nH]2)cc1`, the GI50 was 2340 nM and the TGI was found to be 12100 nM.

Turning to `CC(C)(O)CS(=O)(=O)Nc1ccc2c(c1)CCN(C(=O)COc1cccnc1)C2`, the GI50 was above 100000 nM and the TGI was above 100000 nM.

For the compound `COc1ccc(/C=C\c2cc(OC)c(OC)c(OC)c2)cc1OC(=O)c1cccc(Cn2cc(CCOC(=O)[C@H](N)Cc3cn(C)c4ccccc34)nn2)c1`, the GI50 was below 10 nM and the TGI worked out at 3570 nM.

In the case of `NC(N)=N/N=C\c1cccc(OCc2ccccc2)c1`, the GI50 was 1340 nM and the TGI was 2730 nM.

Turning to `COc1ncc(-c2ccc3nccc(-c4ccnnc4)c3c2)cc1NS(=O)(=O)c1ccc(F)cc1F`, the GI50 is 2.7 nM and < 10 nM; the TGI was 26.6 nM and 15.8 nM.

Regarding `COc1cc(NC2=C(Cl)C(=O)c3nc(C)ccc3C2=O)cc(OC)c1`, the GI50 was 1230 nM and the TGI was determined as 2570 nM.

Turning to `CC[C@@](C)(NC(=O)C(C)(C)NC(=O)[C@@H](NC(=O)[C@@H]1CCCN1C(=O)C(C)(C)NC(=O)[C@H](CC(C)C)NC(=O)CNC(=O)C(C)(C)NC(=O)[C@@H](NC(=O)C(C)(C)NC(=O)[C@H](CCC(N)=O)NC(=O)[C@H](C)NC(=O)C(C)(C)NC(=O)[C@H](C)NC(=O)C(C)(C)NC(=O)[C@H](C)NC(=O)C(C)(C)NC(C)=O)C(C)C)C(C)C)C(=O)N[C@@H](CCC(N)=O)C(=O)N[C@@H](CCC(N)=O)C(=O)N[C@H](CO)CC1CCCCC1` (Ac-[Aib]A[Aib]A[Aib]AQ[Aib]V[Aib]GL[Aib]PV[Aib][dIva]QQ-X13), the GI50 was 747 nM and the TGI is 4080 nM.

On to `CCCc1cc2c(=O)c(C(=O)OC)c[nH]c2cc1N(CC)CC`, for which the GI50 was 24400 nM and the TGI was above 100000 nM.

Consider `C=C(C)[C@@H]1CC[C@]2(COC)CC[C@]3(C)[C@H](CC[C@@H]4[C@@]5(C)CCCNC(C)(C)[C@@H]5CC[C@]43C)[C@@H]12`, for which the GI50 is 1570 nM and the TGI is 3180 nM.

With `CCOc1ccc(-c2nonc2NC(=O)c2cccc(C)c2)cc1OCC`, the GI50 was 17600 nM and the TGI came out at 48800 nM.

On to `Cc1c(-c2c(-c3ccc(F)o3)sc3ncnc(O[C@H](Cc4ccccc4OCc4ccnn4CC(F)(F)F)C(=O)O)c23)ccc(OCCN2CCN(C)CC2)c1Cl`, for which the GI50 was 25.3 nM and the TGI was 105 nM.

For `Cc1ccccc1N=Nc1ccc(NC(=O)c2ccnn2C)c(C)c1`, the GI50 is 3840 nM and the TGI amounted to 70600 nM.

Regarding `O=C1c2cc3c(cc2-c2c1c1ccc(Cl)cc1c(=O)n2CCCNCCO)OCO3`, the GI50 is 85 nM and the TGI was 2350 nM.

`CC1(C)N=C(N)N=C(N)N1c1ccc(OCCCCOc2ccc(S(=O)(=O)F)cc2)c(Cl)c1`: the GI50 is 188 nM and the TGI was 8800 nM.

With `COC(=O)C1=C(C(=O)ON)C2C=CC1(C(Cc1ccccc1)Nc1ccccc1)O2` (stereo not given), the GI50 was 1420 nM and the TGI came to 2800 nM.

Regarding `Cn1c(/C=C(\C#N)c2ccccc2)nc2c(N3CCOCC3)nc(Cl)nc21`, the GI50 was 688 nM and the TGI was 2190 nM.

With `C#CCC(Cc1cnc2nc(N)nc(N)c2n1)c1ccc(C(=O)N[C@@H](CCC(=O)O)C(=O)O)cc1` (stereo not given in full), the GI50 was below 10 nM and the TGI is above 20400 nM.

For the compound `O=C1/C(=C/c2ccccc2)CN(C(=O)c2cccnc2)C/C1=C\c1ccccc1`, the GI50 was 1820 nM and the TGI was 4240 nM.

For the compound `C/C(=N\Nc1cc(C)c2cc(C)ccc2n1)c1ccccn1`, the GI50 was 65.4 nM and the TGI was 318 nM.

As to `CC[C@H](Nc1nc(NCc2cnc(C)cc2C)c2ncn(C(C)C)c2n1)[C@@H](C)O`, the GI50 was 192 nM and the TGI turned out to be 470 nM.

Turning to `C=C1C(=O)O[C@H]2[C@H]1CC/C(Cn1cc(-c3cc(C(F)(F)F)cc(C(F)(F)F)c3)nn1)=C\CC[C@@]1(C)O[C@@H]21`, the GI50 is 424 nM and the TGI amounted to 1750 nM.

`CC1=C2C[C@H]3[C@@H](CC[C@@H]4CC(NS(C)(=O)=O)CC[C@@]43C)[C@@H]2CC[C@@]2(C1)O[C@@H]1C[C@H](C)CN[C@H]1[C@H]2C` (stereo not given in full): the GI50 is 2000 nM and the TGI worked out at 5620 nM.

Turning to `CCOC(=O)N1CCc2cc(OC)c(OC)c3c2c1cc1cc(OC)c(OC)cc13`, the GI50 is 3170 nM and the TGI is above 100000 nM.

As for `O=C1C(=O)c2ccccc2C(O)=C1CC=C(Br)Br`, the GI50 was 11400 nM and the TGI came to 41800 nM.

Turning to `Ic1ccccc1-c1ccccc1`, the GI50 was 85000 nM and the TGI was above 100000 nM.

In the case of `Nc1c(Br)cc(Br)c2c1[nH]c(=O)c1ccccc12`, the GI50 is 550 nM and the TGI was 8900 nM.

In the case of `COc1ccc(-c2nnc(SCc3ccc(O)c4ncccc34)n2-c2ccccc2)cc1`, the GI50 was 810 nM and the TGI was 6570 nM.

`COc1cc(-c2nn(-c3cccc(NC(=O)Nc4cc(C(F)(F)F)cc(C(F)(F)F)c4)c3)cc2-c2ccncc2)ccc1Cl`: the GI50 is 236 nM and the TGI is 2310 nM.

With `O=C(/C=C/c1cccnc1)NCCCCC1CCCN(C(=O)c2ccccc2)C1` (stereo not given), the GI50 was 13600 nM and the TGI was above 100000 nM.

Regarding `CCn1c(CN2CCN(Cc3ccccc3)CC2)nc2cc(NC(=O)c3cccs3)ccc21`, the GI50 is 6160 nM and the TGI is 47100 nM.

Consider `COC1CC2CCC(C)C(O)(O2)C(=O)C(=O)N2CCCCC2C(=O)OC(C(C)CC2CCC(O)C(OC)C2)CC(=O)C(C)C=C(C)C(O)C(OC)C(=O)C(C)CC(C)/C=C/C=C/C=C1C` (stereo not given), for which the GI50 is below 5 nM and the TGI amounted to 7350 nM.

As to `COc1ccccc1CCN=C1NC(=O)/C(=C/c2ccc3ncccc3c2)S1`, the GI50 was 4590 nM and the TGI stood at 16400 nM.

As to `COC(=O)c1c2c(c(C)[n+]([O-])c1C)C(=O)C=C(NCc1ccc(F)c(Cl)c1)C2=O`, the GI50 was 200 nM and the TGI was 712 nM.

`O=C1NC(O)C(c2c[nH]c3ccccc23)=C1c1c[nH]c2ccccc12` (stereo not given): the GI50 is above 25000 nM and the TGI was above 25000 nM.

For `Cc1cc2nc3c4cc(N)ccc4n(CCN(C)C)c3nc2cc1C`, the GI50 is 1040 nM and the TGI came out at 2790 nM.

As for `O=c1c2ccccc2n(C[C@H]2CO2)c2ccccc12`, the GI50 was 1830 nM and the TGI is 3810 nM.

On to `COc1cc(C)c(Cl)cc1C1=NN(c2ccc(S(N)(=O)=O)cc2)C(/C=C/c2ccccc2)C1` (stereo not given), for which the GI50 was 2140 nM and the TGI was 5790 nM.

For the origin of these results see PubChem BioAssay (NCI).
